Experimental data: US10604535B2, “Compounds, compositions and methods” (Denali Therapeutics Inc., priority 2016, dated 2020)
Like-named read-outs stand apart in the source and are kept apart here.

What was measured:
GST-hRIPK1 (8-327) = GST-hRIPK1 (8-327) (Homo sapiens (Human), UniProt Q13546); assay: Fluorescent Polarization Binding (FP Binding) assay
[1] = system: FADD-deficient Jurkat cells; assay: Cellular necroptosis assay (human TNFα-induced necrosis, CellTiter-Glo); type: cell-based; details: Homo sapiens, Jurkat, 48 h, read-out: Cell IC50

Sequence of GST-hRIPK1 (8-327) (Q13546 8-327): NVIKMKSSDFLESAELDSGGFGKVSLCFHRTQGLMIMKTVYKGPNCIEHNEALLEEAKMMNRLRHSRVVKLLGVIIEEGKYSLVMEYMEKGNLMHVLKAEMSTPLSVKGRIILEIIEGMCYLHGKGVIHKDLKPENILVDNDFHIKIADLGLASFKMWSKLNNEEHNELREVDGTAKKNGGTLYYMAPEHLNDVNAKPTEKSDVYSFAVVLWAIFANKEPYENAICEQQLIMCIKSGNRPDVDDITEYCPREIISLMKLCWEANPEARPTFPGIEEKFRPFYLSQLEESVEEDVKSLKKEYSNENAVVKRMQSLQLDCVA

Row | IC50 (GST-hRIPK1 (8-327)) [nM] | SMILES | IC50 ([1]; TNFα 10 ng/mL) [nM] | IC50 [1] [nM]
1 | 0.1 to 1000 | CN1C(=O)[C@@H](NC(=O)c2nnc(Cc3ccccc3)[nH]2)COc2c(Cl)cccc21 [Example 32, (S)-5-benzyl-N-(9-chloro-5-methyl-4-oxo-2,3,4,5-tetrahydrobenzo[b][1,4]oxazepin-3-yl)-4H-1,2,4-triazole-3-carboxamide] | 0.1 to 1000 | 
2 | 0.1 to 1000 | CN1C(=O)[C@@H](NC(=O)c2nnc(C3CCc4ccccc43)[nH]2)COc2ccccc21 (stereo partly drawn) [Example 51, 5-(2,3-dihydro-1H-inden-1-yl)-N—((S)-5-methyl-4-oxo-2,3,4,5-tetrahydrobenzo[b][1,4]oxazepin-3-yl)-4H-1,2,4-triazole-3-carboxamide] | 0.1 to 1000 | 
3 | 0.1 to 1000 | CN1C(=O)[C@@H](NC(=O)c2nn(Cc3ccc(F)cc3)cc2F)[C@H]2C[C@H]2c2cccnc21 [Example 156B, 4-fluoro-1-(4-fluorobenzyl)-N-((1aS,2S,8bR)-4-methyl-3-oxo-1,1a,2,3,4,8b-hexahydrocyclopropa[d]pyrido[2,3-b]azepin-2-yl)-1H-pyrazole-3-carboxamide] | 0.1 to 1000 | 
4 | 0.1 to 1000 | CN1C(=O)[C@@H](NC(=O)c2cc(Oc3ccccc3F)ccn2)[C@H]2C[C@H]2c2cccnc21 [Example 100A, 4-(2-fluorophenoxy)-N-((1aS,2S,8bR)-4-methyl-3-oxo-1,1a,2,3,4,8b-hexahydrocyclopropa[d]pyrido[2,3-b]azepin-2-yl)picolinamide] | 0.1 to 1000 | 
5 | 0.1 to 1000 | CN1C(=O)[C@@H](NC(=O)c2nnc(C3(c4ccccc4)CC3)[nH]2)COc2ccccc21 [Example 35, (S)—N-(5-methyl-4-oxo-2,3,4,5-tetrahydrobenzo[b][1,4]oxazepin-3-yl)-5-(1-phenylcyclopropyl)-4H-1,2,4-triazole-3-carboxamide] | 0.1 to 1000 | 
6 | 0.1 to 1000 | N#Cc1cccc(Cc2nnc(C(=O)N[C@@H]3C(=O)Nc4c(F)cc(F)cc4[C@@H]4C[C@H]34)[nH]2)c1 [Example 181B, 5-(3-cyanobenzyl)-N-((1aS,2S,8bR)-5,7-difluoro-3-oxo-1,1a,2,3,4,8b-hexahydrobenzo[b]cyclopropa[d]azepin-2-yl)-4H-1,2,4-triazole-3-carboxamide] | 0.1 to 1000 | 
7 | 0.1 to 1000 | CN1C(=O)[C@@H](NC(=O)c2nc(C#N)c(Cc3ccccc3)s2)COc2cccnc21 [Example 151, (S)-5-benzyl-4-cyano-N-(5-methyl-4-oxo-2,3,4,5-tetrahydropyrido[3,2-b][1,4]oxazepin-3-yl)thiazole-2-carboxamide] | 0.1 to 1000 | 
8 | 0.1 to 1000 | O=C(N[C@H]1COc2cccnc2NC1=O)c1ncc(Cc2ccccc2)s1 [Example 123, (S)-5-benzyl-N-(4-oxo-2,3,4,5-tetrahydropyrido[3,2-b][1,4]oxazepin-3-yl)thiazole-2-carboxamide] | 0.1 to 1000 | 
9 | 0.1 to 1000 | C[C@H]1Oc2cccnc2N(C)C(=O)[C@H]1NC(=O)c1ncc(Cc2ccccc2)o1 [Example 192, 5-benzyl-N-((2R,3S)-2,5-dimethyl-4-oxo-2,3,4,5-tetrahydropyrido[3,2-b][1,4]oxazepin-3-yl)oxazole-2-carboxamide] | 0.1 to 1000 | 
10 | 0.1 to 1000 | C[C@H]1Oc2cccnc2N(C)C(=O)[C@H]1NC(=O)c1nn(Cc2cccc(C#N)c2)cc1F [Example 128, 1-(3-Cyanobenzyl)-N-((2R,3S)-2,5-dimethyl-4-oxo-2,3,4,5-tetrahydropyrido[3,2-b][1,4]oxazepin-3-yl)-4-fluoro-1H-pyrazole-3-carboxamide] | 0.1 to 1000 | 
11 | 0.1 to 1000 | C[C@H]1Oc2cc(S(C)(=O)=O)cnc2N(C)C(=O)[C@H]1NC(=O)c1nnc(Cc2ccccc2)[nH]1 [Example 147, 5-benzyl-N-((2R,3S)-2,5-dimethyl-8-(methylsulfonyl)-4-oxo-2,3,4,5-tetrahydropyrido[3,2-b][1,4]oxazepin-3-yl)-4H-1,2,4-triazole-3-carboxamide] | 0.1 to 1000 | 
12 | 0.1 to 1000 | CN1C(=O)[C@@H](NC(=O)c2nn(Cc3cccc(F)c3)cc2F)COc2cccnc21 [Example 135, (S)-4-Fluoro-1-(3-fluorobenzyl)-N-(5-methyl-4-oxo-2,3,4,5-tetrahydropyrido[3,2-b][1,4]oxazepin-3-yl)-1H-pyrazole-3-carboxamide] | 0.1 to 1000 | 
13 | 0.1 to 1000 | [2H]C([2H])([2H])N1C(=O)[C@@H](NC(=O)c2nnc(Cc3ccccc3)o2)[C@@H](C)Oc2cccnc21 [Example 174, 5-benzyl-N-((2R,3S)-2-methyl-5-trideuteriomethyl-4-oxo-2,3,4,5-tetrahydropyrido[3,2-b][1,4]oxazepin-3-yl)-1,3,4-oxadiazole-2-carboxamide] | 0.1 to 1000 | 
14 | 0.1 to 1000 | C[C@H]1Oc2cccnc2N(C)C(=O)[C@H]1NC(=O)c1ncc(Cc2ccccc2)s1 [Example 124, 5-benzyl-N-((2R,3S)-2,5-dimethyl-4-oxo-2,3,4,5-tetrahydropyrido[3,2-b][1,4]oxazepin-3-yl)thiazole-2-carboxamide] | 0.1 to 1000 | 
15 | 0.1 to 1000 | [2H]C([2H])([2H])N1C(=O)[C@@H](NC(=O)c2nn(Cc3ccccc3)cc2F)[C@H]2C[C@H]2c2cc(C#N)ccc21 [Example 206, 1-benzyl-N-((1aS,2S,8bR)-7-cyano-4-trideuteriomethyl-3-oxo-1,1a,2,3,4,8b-hexahydrobenzo[b]cyclopropa[d]azepin-2-yl)-4-fluoro-1H-pyrazole-3-carboxamide] | 0.1 to 1000 | 
16 | 0.1 to 1000 | CN1C(=O)[C@@H](NC(=O)c2nn(Cc3ccccc3)cc2F)CCc2nn(C)cc21 [Example 109A, (S)-1-benzyl-N-(2,4-dimethyl-5-oxo-2,4,5,6,7,8-hexahydropyrazolo[4,3-b]azepin-6-yl)-4-fluoro-1H-pyrazole-3-carboxamide] | 0.1 to 1000 | 
17 | 0.1 to 1000 | O=C(N[C@H]1CCc2ccccc2-n2ccnc21)c1cc(Cc2ccccc2)on1 [Example 30, (S)-5-benzyl-N-(5,6-dihydro-4H-benzo[f]imidazo[1,2-a]azepin-4-yl)isoxazole-3-carboxamide] | 0.1 to 1000 | 
18 | 0.1 to 1000 | CN1C(=O)[C@@H](NC(=O)c2cc(Cc3ccccc3)on2)CCc2nccnc21 [Example 188, (S)-5-benzyl-N-(5-methyl-6-oxo-6,7,8,9-tetrahydro-5H-pyrazino[2,3-b]azepin-7-yl)isoxazole-3-carboxamide] | 0.1 to 1000 | 
19 | 0.1 to 1000 | CN1C(=O)[C@@H](NC(=O)c2nnc(Cc3ccccc3)o2)[C@H]2C[C@H]2c2cccnc21 [Example 157B, 5-benzyl-N-((1aS,2S,8bR)-4-methyl-3-oxo-1,1a,2,3,4,8b-hexahydrocyclopropa[d]pyrido[2,3-b]azepin-2-yl)-1,3,4-oxadiazole-2-carboxamide] | 0.1 to 1000 | 
20 | 0.1 to 1000 | CN1C(=O)[C@@H](NC(=O)c2nnc(Cc3ccccc3)[nH]2)CCc2nn(C)cc21 [Example 105A, (S)-5-benzyl-N-(2,4-dimethyl-5-oxo-2,4,5,6,7,8-hexahydropyrazolo[4,3-b]azepin-6-yl)-4H-1,2,4-triazole-3-carboxamide] | 0.1 to 1000 | 
21 | 0.1 to 1000 | CN1C(=O)[C@@H](NC(=O)c2nnc(Cc3cc(F)cc(C#N)c3)[nH]2)COc2cccnc21 [Example 162, (S)-5-(3-cyano-5-fluorobenzyl)-N-(5-methyl-4-oxo-2,3,4,5-tetrahydropyrido[3,2-b][1,4]oxazepin-3-yl)-4H-1,2,4-triazole-3-carboxamide] | 0.1 to 1000 | 
22 | 0.1 to 1000 | CN1C(=O)[C@@H](NC(=O)c2nnc([C@@H]3CCc4ccccc43)[nH]2)COc2cccnc21 [Example 54A, 5-((R)-2,3-dihydro-1H-inden-1-yl)-N—((S)-5-methyl-4-oxo-2,3,4,5-tetrahydropyrido[3,2-b][1,4]oxazepin-3-yl)-4H-1,2,4-triazole-3-carboxamide] | 0.1 to 1000 | 
23 | 0.1 to 1000 | CN1C(=O)[C@@H](NC(=O)c2nn(Cc3cccc(C#N)c3)cc2F)CCc2cccnc21 [Example 152B, (S)-1-(3-cyanobenzyl)-4-fluoro-N-(9-methyl-8-oxo-6,7,8,9-tetrahydro-5H-pyrido[2,3-b]azepin-7-yl)-1H-pyrazole-3-carboxamide] | 0.1 to 1000 | 
24 | 0.1 to 1000 | Cc1nc2c(s1)CC[C@H](NC(=O)c1nnc(Cc3ccccc3)[nH]1)C(=O)N2C [Example 38A, (S)-5-benzyl-N-(2,4-dimethyl-5-oxo-5,6,7,8-tetrahydro-4H-thiazolo[4,5-b]azepin-6-yl)-4H-1,2,4-triazole-3-carboxamide] | 0.1 to 1000 | 
25 | 0.1 to 1000 | Cc1c(F)c(C(=O)N[C@H]2COc3ccccc3N(C)C2=O)nn1Cc1ccccc1 [Example 6, (S)-1-benzyl-4-fluoro-5-methyl-N-(5-methyl-4-oxo-2,3,4,5-tetrahydrobenzo[b][1,4]oxazepin-3-yl)-1H-pyrazole-3-carboxamide] | 0.1 to 1000 | 
26 | 0.1 to 1000 | C[C@H]1Oc2cccnc2N(C)C(=O)[C@H]1NC(=O)c1cn(Cc2ccccc2)cn1 [Example 140, 1-Benzyl-N-((2R,3S)-2,5-dimethyl-4-oxo-2,3,4,5-tetrahydropyrido[3,2-b][1,4]oxazepin-3-yl)-1H-imidazole-4-carboxamide] | 0.1 to 1000 | 

Row | SMILES | IC50 (GST-hRIPK1 (8-327)) [nM] | IC50 ([1]; TNFα 10 ng/mL) [nM] | IC50 [1] [nM]
27 | CN1C(=O)[C@@H](NC(=O)c2cc(C#N)n(Cc3ccccc3)n2)COc2cccnc21 [Example 158, (S)-1-benzyl-5-cyano-N-(5-methyl-4-oxo-2,3,4,5-tetrahydropyrido[3,2-b][1,4]oxazepin-3-yl)-1H-pyrazole-3-carboxamide] | 0.1 to 1000 |  | 0.1 to 1000
28 | CN1C(=O)[C@@H](NC(=O)c2cc(Cc3ccccc3)on2)C2CC2c2ccccc21 (stereo partly drawn) [Example 7, 5-benzyl-N-((2S)-4-methyl-3-oxo-1,1a,2,3,4,8b-hexahydrobenzo[b]cyclopropa[d]azepin-2-yl)isoxazole-3-carboxamide] | 0.1 to 1000 | 0.1 to 1000 | 
29 | C[C@H]1Oc2cccnc2N(C)C(=O)[C@H]1NC(=O)c1cn(Cc2ccccc2)nn1 [Example 203, 1-benzyl-N-((2R,3S)-2,5-dimethyl-4-oxo-2,3,4,5-tetrahydropyrido[3,2-b][1,4]oxazepin-3-yl)-1H-1,2,3-triazole-4-carboxamide] | 0.1 to 1000 | 0.1 to 1000 | 
